In test [1] the target is T1, DENV2 protease (DENV2pro; DENV serotype 2 NS2B-NS3 protease construct, GGGGSGGGG-linked) (Dengue virus 2 Thailand/16681/84, UniProt P29990). The test is described as follows: biochemical.
Test [2] deals with T1, DENV2 protease (DENV2pro; DENV serotype 2 NS2B-NS3 protease construct, GGGGSGGGG-linked). The test is described as follows: biochemical. It is filed as binding.

T1 sequence (P29990 1394-1440 limits assumed): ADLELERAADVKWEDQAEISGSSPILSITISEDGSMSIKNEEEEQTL
T1 sequence (P29990 1476-1660 limits assumed): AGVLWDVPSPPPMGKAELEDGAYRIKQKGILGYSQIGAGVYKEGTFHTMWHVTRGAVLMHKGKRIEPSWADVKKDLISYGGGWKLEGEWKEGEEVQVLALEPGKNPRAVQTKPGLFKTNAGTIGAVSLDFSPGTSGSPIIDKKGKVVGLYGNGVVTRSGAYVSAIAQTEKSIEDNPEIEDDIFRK

As usually defined, the IC50 is the point on the concentration scale where inhibition reaches its midpoint. The compound `N=C(N)NCCC[C@H](NC(=O)[C@H](CCCNC(=N)N)NC(=O)c1ccccc1)B(O)O` [compound 1] came in with an IC50 in test [1] of 0.68 ± 0.01 µM.
Still for that read-out and setting: the same measure for `CCCCCC(=O)N[C@H](C(=O)NCc1ccc(NC(=N)N)cc1)c1ccc(OCc2ccccc2)cc1` [compound 3]: 17.6 ± 2.15 µM; for `NC(=O)c1cccc(NC(=O)[C@@H](NC(=O)c2ccc(Oc3ccccc3)cc2)c2ccc(OCc3ccccc3)cc2)c1` [compound 4]: 5.37 ± 0.73 µM; for `CC(C)(C)NC(=O)C(=O)/C=C/c1c[nH]c2ccccc12` [compound 5]: 37.1 ± 1.29 µM.
As a reminder, the Kd is the concentration at which binding is half-saturated. Read a high Kd as a looser complex. For `NC(=O)c1ccc(CNC(=O)[C@@H](NC(=O)c2ccc(-c3cccs3)s2)c2ccc(OCc3ccccc3)cc2)cc1` [compound 23], the Kd in test [2] stood at 2.4 ± 0.6 µM.

Values taken from paper doi:10.1101/2024.04.15.589505v1 (biorxiv, 2024).
